For 33 compounds, Ki results are on record in US7528138B2, “Pyrazolo[1,5-a]pyrimidines useful as inhibitors of protein kinases” (Vertex Pharmaceuticals Incorporated, priority 2004, dated 2009).

Holding throughout (type): biochemical
One experiment deals with c-Met (Homo sapiens, UniProt P08581). Kind of experiment: c-Met Inhibition Assay, coupled enzyme system. The following applies: enzyme inhibition data (Ki), Table 11. An outline of the steps:
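Pyruvate kinase/lactate dehydrogenase-coupled NADH assay in HEPES pH 7.5 with 80 nM c-Met, 200 μM ATP and 10 μM polyGluTyr at 30° C. Compound (0.006–12.5 μM final, 12-point) preincubated 10 min before ATP start; rates over 10 min gave Ki.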

A further experiment deals with T1, Itk (Homo sapiens, UniProt Q08881).
T1 sequence (Q08881 1-620): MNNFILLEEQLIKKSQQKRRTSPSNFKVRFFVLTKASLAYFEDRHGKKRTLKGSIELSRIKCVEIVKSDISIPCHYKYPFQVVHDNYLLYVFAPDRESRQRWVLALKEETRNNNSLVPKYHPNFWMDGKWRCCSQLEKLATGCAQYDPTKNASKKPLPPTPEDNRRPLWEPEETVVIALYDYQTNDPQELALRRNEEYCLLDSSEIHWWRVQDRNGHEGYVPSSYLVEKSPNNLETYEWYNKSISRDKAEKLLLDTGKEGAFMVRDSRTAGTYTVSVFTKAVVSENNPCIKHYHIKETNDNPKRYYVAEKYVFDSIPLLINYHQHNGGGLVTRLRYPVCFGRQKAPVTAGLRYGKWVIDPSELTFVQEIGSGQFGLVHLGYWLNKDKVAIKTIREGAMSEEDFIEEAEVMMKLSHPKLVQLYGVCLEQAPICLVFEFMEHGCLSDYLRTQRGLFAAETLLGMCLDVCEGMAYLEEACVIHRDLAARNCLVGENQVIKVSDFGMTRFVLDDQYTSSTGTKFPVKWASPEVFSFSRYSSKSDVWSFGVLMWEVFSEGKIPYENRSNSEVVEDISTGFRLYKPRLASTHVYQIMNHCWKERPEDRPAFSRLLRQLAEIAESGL
Description: ITK Inhibition Assay (Radiometric), radioactive-phosphate incorporation. The following applies: enzyme inhibition data (Ki), Table 11; radiometric or UV assay not stated. The essentials:
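Radiometric 33P incorporation into SAM68 peptide (D332-443) with filter capture and scintillation counting; 10 min pre-incubation then 10 min reaction at 25° C. IC50 format: 30 nM Itk, 15 μM ATP, 2 μM peptide, HEPES pH 7.5. Ki(app) format: 50 nM Itk, 7.5 μM ATP, 3 μM peptide, MOPS pH 7.0.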

The next experiment addresses T2, JAK3 (Homo sapiens, UniProt P52333).
T2 sequence (P52333 1-1124): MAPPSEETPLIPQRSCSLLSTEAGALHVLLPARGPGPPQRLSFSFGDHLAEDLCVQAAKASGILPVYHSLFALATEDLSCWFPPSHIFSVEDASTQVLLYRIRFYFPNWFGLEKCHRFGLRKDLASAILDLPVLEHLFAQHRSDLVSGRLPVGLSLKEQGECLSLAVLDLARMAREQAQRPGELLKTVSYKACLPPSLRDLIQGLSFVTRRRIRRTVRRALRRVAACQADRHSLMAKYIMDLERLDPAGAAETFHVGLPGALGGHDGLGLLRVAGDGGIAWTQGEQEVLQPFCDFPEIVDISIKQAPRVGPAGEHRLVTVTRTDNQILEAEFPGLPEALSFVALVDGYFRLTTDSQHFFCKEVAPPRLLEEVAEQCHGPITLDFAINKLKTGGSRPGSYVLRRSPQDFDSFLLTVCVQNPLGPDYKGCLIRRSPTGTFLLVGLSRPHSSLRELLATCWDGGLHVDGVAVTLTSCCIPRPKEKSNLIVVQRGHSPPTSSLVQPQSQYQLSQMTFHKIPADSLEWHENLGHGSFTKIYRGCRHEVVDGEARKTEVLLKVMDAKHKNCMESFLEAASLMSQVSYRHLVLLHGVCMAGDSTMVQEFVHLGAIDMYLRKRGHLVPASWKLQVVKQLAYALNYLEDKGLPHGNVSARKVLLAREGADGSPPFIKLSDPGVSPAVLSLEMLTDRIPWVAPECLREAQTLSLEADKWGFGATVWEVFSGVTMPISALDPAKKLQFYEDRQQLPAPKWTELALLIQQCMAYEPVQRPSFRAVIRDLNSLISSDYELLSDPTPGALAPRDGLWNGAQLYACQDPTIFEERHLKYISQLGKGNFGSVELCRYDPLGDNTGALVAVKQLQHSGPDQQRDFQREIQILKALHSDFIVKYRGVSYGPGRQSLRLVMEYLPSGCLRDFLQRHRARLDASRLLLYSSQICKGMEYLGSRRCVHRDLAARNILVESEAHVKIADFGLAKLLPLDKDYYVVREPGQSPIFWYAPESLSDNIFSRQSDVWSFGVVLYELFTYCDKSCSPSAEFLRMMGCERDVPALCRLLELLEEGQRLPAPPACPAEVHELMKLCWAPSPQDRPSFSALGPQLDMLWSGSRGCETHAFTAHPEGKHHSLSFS
Kind of experiment: JAK3 Inhibition Assay, 33P incorporation. The following applies: enzyme inhibition data (Ki), Table 11. An outline of the steps: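 33P incorporation into 1 μM poly(Glu)4Tyr was counted after TCA stop and glass fiber filtration. The 20 min reaction ran at 25 °C with 1 nM JAK3 and 5 μM ATP (200 uCi/μmole). Buffer was 100 mM HEPES pH 7.4, 10 mM MgCl2, 25 mM NaCl, 1 mM DTT, 0.01% BSA.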

SMILES strings stand for the structures.

c-Met, sequence (P08581 25-1390): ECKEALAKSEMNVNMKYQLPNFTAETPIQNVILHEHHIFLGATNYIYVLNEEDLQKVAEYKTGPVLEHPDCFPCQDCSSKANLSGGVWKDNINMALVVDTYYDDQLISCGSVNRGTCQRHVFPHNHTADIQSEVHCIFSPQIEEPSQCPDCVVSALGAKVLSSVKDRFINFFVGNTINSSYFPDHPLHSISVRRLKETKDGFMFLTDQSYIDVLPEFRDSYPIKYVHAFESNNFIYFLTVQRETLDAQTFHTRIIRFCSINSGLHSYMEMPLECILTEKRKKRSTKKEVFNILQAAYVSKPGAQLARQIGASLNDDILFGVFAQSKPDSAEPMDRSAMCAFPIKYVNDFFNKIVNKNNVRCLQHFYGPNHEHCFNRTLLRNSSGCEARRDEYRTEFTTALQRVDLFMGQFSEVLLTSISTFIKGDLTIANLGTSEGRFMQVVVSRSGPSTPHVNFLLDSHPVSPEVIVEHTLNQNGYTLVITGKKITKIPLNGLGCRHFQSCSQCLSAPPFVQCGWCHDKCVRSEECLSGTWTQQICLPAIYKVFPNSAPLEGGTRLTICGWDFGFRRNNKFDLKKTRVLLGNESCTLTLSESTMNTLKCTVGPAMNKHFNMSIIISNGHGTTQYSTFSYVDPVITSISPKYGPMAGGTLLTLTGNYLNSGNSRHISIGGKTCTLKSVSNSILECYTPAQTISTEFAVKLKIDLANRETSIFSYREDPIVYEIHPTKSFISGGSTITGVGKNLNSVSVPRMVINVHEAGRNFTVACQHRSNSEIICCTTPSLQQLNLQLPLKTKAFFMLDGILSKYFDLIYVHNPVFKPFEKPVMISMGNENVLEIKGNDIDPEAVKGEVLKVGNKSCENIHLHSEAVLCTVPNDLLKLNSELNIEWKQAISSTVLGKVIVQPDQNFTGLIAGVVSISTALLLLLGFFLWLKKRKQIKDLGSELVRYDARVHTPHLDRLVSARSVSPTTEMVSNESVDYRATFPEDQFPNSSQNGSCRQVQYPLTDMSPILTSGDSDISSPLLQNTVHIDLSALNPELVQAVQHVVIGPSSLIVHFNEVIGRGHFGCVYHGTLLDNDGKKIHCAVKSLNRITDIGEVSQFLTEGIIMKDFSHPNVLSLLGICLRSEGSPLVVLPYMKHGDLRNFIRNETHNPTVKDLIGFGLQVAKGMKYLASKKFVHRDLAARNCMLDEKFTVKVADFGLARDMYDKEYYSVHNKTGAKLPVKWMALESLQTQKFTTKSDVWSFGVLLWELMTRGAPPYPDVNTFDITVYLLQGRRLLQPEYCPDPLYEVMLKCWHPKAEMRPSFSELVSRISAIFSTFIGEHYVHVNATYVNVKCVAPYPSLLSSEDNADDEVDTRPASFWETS

Regarding `C[C@@H](CO)NCCCc1cnc2c(-c3ccccn3)c(N)nn2c1` [Compound V-326], the figures for the Ki at c-Met, on Itk and at JAK3 were 0.5 to 5 µM, 0.5 to 5 µM and greater than 5 µM, respectively.
As to `Nc1nn2cc(-c3ccncn3)cnc2c1C(=O)N1CCC[C@H]1CN1CCCC1` [Compound V-34], the inhibition constant Ki is 0.5 to 5 µM at c-Met, 0.5 to 5 µM at Itk and greater than 5 µM on JAK3.
As for `Nc1nn2cc(/C=C/c3ccccc3)cnc2c1-c1ccccn1` [Compound V-209], the Ki on c-Met is 0.5 to 5 µM; on Itk, less than 0.5 µM; at JAK3, greater than 5 µM.
Taken in the same sequence, the figures for `Cc1cnc2c(-c3cc(NC(C)CO)ncn3)c(N)nn2c1` (stereo not drawn) [Compound V-283] were 0.5 to 5 µM, 0.5 to 5 µM and 0.5 to 5 µM.
Taken in the same sequence, the figures for `Nc1nn2cc(CCCNC3CCC3)cnc2c1-c1ccccn1` [Compound V-324] were less than 0.5 µM, 0.5 to 5 µM and greater than 5 µM.
The matching figures for `Cc1cnc2c(-c3cc(N4CCCC(C(N)=O)C4)ncn3)c(N)nn2c1` (stereo not drawn) [Compound V-309]: less than 0.5 µM, 0.5 to 5 µM and less than 0.5 µM.
For `CCN(Cc1ccccn1)c1ncccc1-c1cnc2c(-c3ccccn3)c(N)nn2c1` [Compound V-263], the values for the Ki at c-Met, on Itk and at JAK3 were 0.5 to 5 µM, 0.5 to 5 µM and greater than 5 µM, respectively.
In the case of `CC(C)CN(C)C(=O)c1cccc(-c2cnc3c(-c4ccccn4)c(N)nn3c2)n1` [Compound V-125], the Ki was less than 0.5 µM at c-Met, 0.5 to 5 µM on Itk and greater than 5 µM on JAK3.
The matching figures for `Cc1cnc2c(-c3cc(N4CCC(NC(=O)C(F)(F)F)C4)ncn3)c(N)nn2c1` (stereo not drawn) [Compound V-343]: 0.5 to 5 µM, 0.5 to 5 µM and 0.5 to 5 µM.
Taken in the same sequence, the figures for `CC(C)N(CCCc1cnc2c(-c3ccccn3)c(N)nn2c1)C(C)C` [Compound V-320] were 0.5 to 5 µM, 0.5 to 5 µM and greater than 5 µM.
The matching figures for `Nc1nn2cc(-c3ccccc3F)cnc2c1-c1ccccn1` [Compound V-13]: 0.5 to 5 µM, 0.5 to 5 µM and greater than 5 µM.
Consider `CN1CCCN(C(=O)c2cccc(-c3cnc4c(-c5ccccn5)c(N)nn4c3)n2)CC1` [Compound V-105], for which the Ki at c-Met is less than 0.5 µM; at Itk, 0.5 to 5 µM; on JAK3 it was greater than 5 µM.
Consider `Nc1nn2cc(-c3ccc(N4CCSCC4)nc3)cnc2c1-c1ccccn1` [Compound V-170], for which the figures for the Ki on c-Met, at Itk and on JAK3 were 0.5 to 5 µM, 0.5 to 5 µM and greater than 5 µM, respectively.
In the case of `CCOC(=O)C1CCCN(c2ccc(-c3cnc4c(-c5ccccn5)c(N)nn4c3)cn2)C1` (stereo not drawn) [Compound V-167], the inhibition constant (Ki) is less than 0.5 µM on c-Met, 0.5 to 5 µM at Itk and greater than 5 µM at JAK3.
The matching figures for `Nc1nn2cc(C(=O)NCc3cccnc3)cnc2c1-c1ccccn1` [Compound V-200]: 0.5 to 5 µM, 0.5 to 5 µM and greater than 5 µM.
Regarding `CCCN(CCO)C(=O)c1cccc(-c2cnc3c(-c4ccccn4)c(N)nn3c2)n1` [Compound V-111], the Ki on c-Met was less than 0.5 µM; at Itk, 0.5 to 5 µM; on JAK3 it was greater than 5 µM.
The matching figures for `Nc1nn2cc(-c3ccncn3)cnc2c1C(=O)N1CCC(O)C1` (stereo not drawn) [Compound V-44]: 0.5 to 5 µM, 0.5 to 5 µM and greater than 5 µM.
The matching figures for `CN(CC1OCCO1)C(=O)c1cccc(-c2cnc3c(-c4ccccn4)c(N)nn3c2)n1` [Compound V-142]: less than 0.5 µM, 0.5 to 5 µM and 0.5 to 5 µM.
As for `CCN(CC)CCN(C)C(=O)c1ccc(-c2cnc3c(-c4ccccn4)c(N)nn3c2)nc1` [Compound V-88], the results for the inhibitory constant (Ki) at c-Met, at Itk and at JAK3 were less than 0.5 µM, less than 0.5 µM and 0.5 to 5 µM, respectively.
`Nc1nn2cc(-c3ccncc3)cnc2c1-c1cccc(Br)n1` [Compound V-137]: the inhibitory constant (Ki) on c-Met was 0.5 to 5 µM; on Itk, 0.5 to 5 µM; at JAK3, greater than 5 µM.
Take `CC(C)N1CCN(CCCc2cnc3c(-c4ccccn4)c(N)nn3c2)CC1` [Compound V-331]: the inhibition constant (Ki) on c-Met was 0.5 to 5 µM; on Itk it was 0.5 to 5 µM; at JAK3 it was greater than 5 µM.
Take `Cc1cnc2c(-c3cc(N4CCC[C@H]4CO)ncn3)c(N)nn2c1` [Compound V-306]: the results for the Ki on c-Met, on Itk and on JAK3 were less than 0.5 µM, 0.5 to 5 µM and 0.5 to 5 µM, respectively.
With `Nc1nn2cc(-c3ccccc3C(=O)O)cnc2c1-c1ccccn1` [Compound V-11], the figures for the inhibition constant Ki at c-Met, on Itk and at JAK3 were 0.5 to 5 µM, 0.5 to 5 µM and greater than 5 µM, respectively.
For the compound `Nc1nn2cc(-c3ccccc3C(F)(F)F)cnc2c1-c1ccccn1` [Compound V-5], the Ki at c-Met is 0.5 to 5 µM; on Itk it was 0.5 to 5 µM; at JAK3, greater than 5 µM.
Turning to `CC(=O)N1CCN(c2ncccc2-c2cnc3c(-c4ccccn4)c(N)nn3c2)CC1` [Compound V-269], the inhibition constant Ki at c-Met is 0.5 to 5 µM; at Itk it was 0.5 to 5 µM; on JAK3, greater than 5 µM.
Consider `CN(CCN)C(=O)c1cccc(-c2cnc3c(-c4ccccn4)c(N)nn3c2)n1` [Compound V-120], for which the results for the inhibition constant Ki at c-Met, on Itk and on JAK3 were less than 0.5 µM, less than 0.5 µM and 0.5 to 5 µM, respectively.
With `Cc1cnc2c(-c3cc(N[C@@H](C)C(C)C)ncn3)c(N)nn2c1` [Compound V-296], the inhibition constant Ki is less than 0.5 µM at c-Met, less than 0.5 µM at Itk and 0.5 to 5 µM at JAK3.
For the compound `Nc1nn2cc(CCCN3CCNCC3)cnc2c1-c1ccccn1` [Compound V-314], the Ki at c-Met was 0.5 to 5 µM; at Itk it was 0.5 to 5 µM; at JAK3, greater than 5 µM.
As to `Nc1nn2cc(CCCNC3CCCCC3)cnc2c1-c1ccccn1` [Compound V-323], the Ki is 0.5 to 5 µM at c-Met, 0.5 to 5 µM on Itk and greater than 5 µM on JAK3.
As to `Nc1nn2cc(-c3ccncc3)cnc2c1C(=O)c1ccccc1` [Compound V-131], the Ki at c-Met, on Itk and at JAK3 was 0.5 to 5 µM throughout.
`CN(C)CCNc1cc(-c2cnc3c(-c4ccccn4)c(N)nn3c2)ccn1` [Compound V-246]: the Ki at c-Met is less than 0.5 µM; at Itk, 0.5 to 5 µM; at JAK3, greater than 5 µM.
The matching figures for `CCN(Cc1ccncc1)C(=O)c1c(N)nn2cc(-c3ccncn3)cnc12` [Compound V-36]: 0.5 to 5 µM, 0.5 to 5 µM and greater than 5 µM.
On to `COC(=O)C1CCN(c2ncccc2-c2cnc3c(-c4ccccn4)c(N)nn3c2)CC1` [Compound V-260], for which the values for the inhibition constant Ki on c-Met, on Itk and at JAK3 were 0.5 to 5 µM, 0.5 to 5 µM and greater than 5 µM, respectively.
